Results published in patent US20250099474A1 (priority 2022, published 2025).

Experiments:
[1] = tested on: SARS-CoV-2; assay: Phase 2/3 study, Phase 2b Part: score of 12 COVID-19 symptoms per unit time; type: in vivo, human; settings: for Change from baseline up to 120 hours in total score of 12 COVID-19 symptoms per unit time: Adjusted mean value by covariance analysis (standard error) / Change from baseline up to 120 hours in total score of 12 COVID-19 symptoms per unit time: Difference of adjusted mean value from that of placebo group (standard error) / Change from baseline up to 120 hours in total score of 12 COVID-19 symptoms per unit time: Maximum value / Change from baseline up to 120 hours in total score of 12 COVID-19 symptoms per unit time: Mean value / Change from baseline up to 120 hours in total score of 12 COVID-19 symptoms per unit time: Median value / Change from baseline up to 120 hours in total score of 12 COVID-19 symptoms per unit time: Minimum value: mild/moderate patients, ITT1 population
Description: (§1) The primary endpoints of Phase 2b Part were the time-weighted average change in the total score of 12 COVID-19 symptoms per unit time from the start of the first administration (Day 1) to 120 hours (Day 6), and the change from baseline in SARS-CoV-2 virus titer on Day 4, in mild/moderate SARS-CoV-2-infected patients, and the clinical improvement and the antiviral effect of the active drug were confirmed.
(§2) The administration of the active drug is repeated oral administration once a day for 5 days. The 375/125 mg group received 375 mg on Day 1 as a loading dose and 125 mg on Days 2 to 5 as a maintenance dose. The 750/250 mg group received 750 mg on Day 1 as a loading dose and 250 mg on Days 2 to 5 as a maintenance dose.
(§3) The primary efficacy endpoints of Phase 2b Part for mild/moderate SARS-CoV-2-infected patients were the time-weighted average change in the total score of 12 COVID-19 symptoms per unit time from the start of the first administration (Day 1) to 120 hours (Day 6), and the change from baseline in SARS-CoV-2 virus titer on Day 4. The total score of 12 COVID-19 symptoms is the sum of the scores determined by evaluation in four grades (0: none, 1: mild, 2: moderate, 3: severe) in the subject daily records for each of the 12 COVID-19 symptoms (low energy and tiredness, muscle or body aches, headache, chills or shivering, feeling hot or feverish, stuffy and runny nose, sore throat, cough, shortness of breath (difficulty breathing), nausea, vomiting, diarrhea).
(§4) Pairwise comparison was performed between each active drug dose group and the placebo group. […] Pairwise comparison was performed between each active drug dose group and the placebo group.
The results of classifying the twelve COVID-19 symptoms shown in the above (2-a) into 5 types (acute symptoms, major clinical symptoms, respiratory symptoms, systemic symptoms, and gastrointestinal symptoms) and analyzing the same (ITT population) are shown in the following table. • Acute symptoms: sore throat, cough, feeling hot and feverish • Major clinical symptoms: stuffy and runny nose, sore throat, cough, chills or shivering, feeling hot or feverish • Respiratory symptoms: stuffy and runny nose, sore throat, cough, shortness of breath (difficulty breathing) • Systemic symptoms: low energy and tiredness, muscle or body aches, headache, chills or shivering, feeling hot or feverish • Gastrointestinal symptoms: nausea, vomiting, diarrhea

[2] = tested on: SARS-CoV-2; assay: Phase 2/3 study, Phase 2b Part: SARS-CoV-2 virus titer on Day 4; type: in vivo, human; settings: for Change from baseline in SARS-CoV-2 virus titer on Day 4: Adjusted mean value by covariance analysis (standard error) / Change from baseline in SARS-CoV-2 virus titer on Day 4: Difference of adjusted mean value from that of placebo group (standard error) / Change from baseline in SARS-CoV-2 virus titer on Day 4: Maximum value / Change from baseline in SARS-CoV-2 virus titer on Day 4: Mean value / Change from baseline in SARS-CoV-2 virus titer on Day 4: Median value / Change from baseline in SARS-CoV-2 virus titer on Day 4: Minimum value: mild/moderate patients, ITT1 population
Description: as §1, §2, §3, §4

[3] = ITT population, 750/250 mg group

Cn1cnc(Cn2c(=O)[nH]/c(=N\c3cc4cn(C)nc4cc3Cl)n(Cc3cc(F)c(F)cc3F)c2=O)n1 [(6E)-6-[(6-chloro-2-methyl-2H-indazol-5-yl)imino]-3-[(1-methyl-1H-1,2,4-triazol-3-yl)methyl]-1-[(2,4,5-trifluorophenyl)methyl]-1,3,5-triazinane-2,4-dione]
Change from baseline up to 120 hours in sub-total score per unit time, major clinical symptoms: Adjusted mean value by covariance analysis (standard error) [1, 3]: −3.42 (0.14) | Change from baseline up to 120 hours in sub-total score per unit time, major clinical symptoms: Difference of adjusted mean value from that of placebo group (standard error) [1, 3]: −0.42 (0.17) | Change from baseline up to 120 hours in sub-total score per unit time, major clinical symptoms: Maximum value [1, 3]: 0.39 | Change from baseline up to 120 hours in sub-total score per unit time, major clinical symptoms: Mean value [1, 3]: −3.54 | Change from baseline up to 120 hours in sub-total score per unit time, major clinical symptoms: Median value [1, 3]: −3.42 | Change from baseline up to 120 hours in sub-total score per unit time, major clinical symptoms: Minimum value [1, 3]: −10.11 | Change from baseline up to 120 hours in sub-total score per unit time, respiratory symptoms: Adjusted mean value by covariance analysis (standard error) [1, 3]: −2.16 (0.12) | Change from baseline up to 120 hours in sub-total score per unit time, respiratory symptoms: Difference of adjusted mean value from that of placebo group (standard error) [1, 3]: −0.44 (0.15) | Change from baseline up to 120 hours in sub-total score per unit time, respiratory symptoms: Maximum value [1, 3]: 2.29 | Change from baseline up to 120 hours in sub-total score per unit time, respiratory symptoms: Mean value [1, 3]: −2.33 | Change from baseline up to 120 hours in sub-total score per unit time, respiratory symptoms: Median value [1, 3]: −2.30 | Change from baseline up to 120 hours in sub-total score per unit time, respiratory symptoms: Minimum value [1, 3]: −6.34 | Change from baseline up to 120 hours in sub-total score per unit time, systemic symptoms: Adjusted mean value by covariance analysis (standard error) [1, 3]: −3.16 (0.14) | Change from baseline up to 120 hours in sub-total score per unit time, systemic symptoms: Difference of adjusted mean value from that of placebo group (standard error) [1, 3]: 0.30 (0.17) | Change from baseline up to 120 hours in sub-total score per unit time, systemic symptoms: Maximum value [1, 3]: 2.71 | Change from baseline up to 120 hours in sub-total score per unit time, systemic symptoms: Mean value [1, 3]: −3.19 | Change from baseline up to 120 hours in sub-total score per unit time, systemic symptoms: Median value [1, 3]: −2.81 | Change from baseline up to 120 hours in sub-total score per unit time, systemic symptoms: Minimum value [1, 3]: −9.66 | Change from baseline up to 120 hours in total score of 12 COVID-19 symptoms per unit time: Adjusted mean value by covariance analysis (standard error) ([1]; 375/125 mg group): −5.37 (0.24) | Change from baseline up to 120 hours in total score of 12 COVID-19 symptoms per unit time: Difference of adjusted mean value from that of placebo group (standard error) ([1]; 375/125 mg group): −0.24 (0.30) | Change from baseline up to 120 hours in total score of 12 COVID-19 symptoms per unit time: Maximum value ([1]; 375/125 mg group): 2.43 | Change from baseline up to 120 hours in total score of 12 COVID-19 symptoms per unit time: Mean value ([1]; 375/125 mg group): −5.95 | Change from baseline up to 120 hours in total score of 12 COVID-19 symptoms per unit time: Median value ([1]; 375/125 mg group): −5.40 | Change from baseline up to 120 hours in total score of 12 COVID-19 symptoms per unit time: Minimum value ([1]; 375/125 mg group): −20.37 | Change from baseline up to 120 hours in total score of 12 COVID-19 symptoms per unit time: Adjusted mean value by covariance analysis (standard error) ([1]; 750/250 mg group): −5.17 (0.23) | Change from baseline up to 120 hours in total score of 12 COVID-19 symptoms per unit time: Difference of adjusted mean value from that of placebo group (standard error) ([1]; 750/250 mg group): −0.04 (0.29) | Change from baseline up to 120 hours in total score of 12 COVID-19 symptoms per unit time: Maximum value ([1]; 750/250 mg group): 2.47 | Change from baseline up to 120 hours in total score of 12 COVID-19 symptoms per unit time: Mean value ([1]; 750/250 mg group): −5.42 | Change from baseline up to 120 hours in total score of 12 COVID-19 symptoms per unit time: Median value ([1]; 750/250 mg group): −4.92 | Change from baseline up to 120 hours in total score of 12 COVID-19 symptoms per unit time: Minimum value ([1]; 750/250 mg group): −18.16 | Proportion of patients with a positive virus titer of 1.1 or more on Day 4 ([2]; 375/125 mg group): 1.9% | SARS-CoV-2 virus titer on Day 4 as compared with the placebo group ([2]; 375/125 mg group and 750/250 mg group, p<0.0001): statistically significantly reduced | Proportion of patients with a positive virus titer of 1.1 or more on Day 4 ([2]; 750/250 mg group): 5.4% | Change from baseline in SARS-CoV-2 virus titer on Day 4: Adjusted mean value by covariance analysis (standard error) ([2]; 375/125 mg group): −1.49 (0.04) | Change from baseline in SARS-CoV-2 virus titer on Day 4: Difference of adjusted mean value from that of placebo group (standard error) ([2]; 375/125 mg group): −0.41 (0.05) | Change from baseline in SARS-CoV-2 virus titer on Day 4: Maximum value ([2]; 375/125 mg group): 0.0 | Change from baseline in SARS-CoV-2 virus titer on Day 4: Mean value ([2]; 375/125 mg group): −1.69 | Change from baseline in SARS-CoV-2 virus titer on Day 4: Median value ([2]; 375/125 mg group): −1.70 | Change from baseline in SARS-CoV-2 virus titer on Day 4: Minimum value ([2]; 375/125 mg group): −3.7 | Change from baseline in SARS-CoV-2 virus titer on Day 4: Adjusted mean value by covariance analysis (standard error) ([2]; 750/250 mg group): −1.49 (0.04) | Change from baseline in SARS-CoV-2 virus titer on Day 4: Difference of adjusted mean value from that of placebo group (standard error) ([2]; 750/250 mg group): −0.41 (0.05) | Change from baseline in SARS-CoV-2 virus titer on Day 4: Maximum value ([2]; 750/250 mg group): 0.0 | Change from baseline in SARS-CoV-2 virus titer on Day 4: Mean value ([2]; 750/250 mg group): −1.43 | Change from baseline in SARS-CoV-2 virus titer on Day 4: Median value ([2]; 750/250 mg group): −1.40 | Change from baseline in SARS-CoV-2 virus titer on Day 4: Minimum value ([2]; 750/250 mg group): −3.4
